According to ChEMBL document CHEMBL4308841, “Synthesis, in vitro antiproliferative activity, and kinase inhibitory effects of pyrazole-containing diarylureas and diarylamides” (Eur J Med Chem, 2018):

Assays:
[1] = tested on: CCRF-CEM; assay: Growth inhibition of human CCRF-CEM cells assessed as cell growth at 100 uM incubated for 48 hrs by sulforhodamine B assay relative to control; format: functional; details: read-out: Activity
[2] = tested on: BT-549; assay: Growth inhibition of human BT549 cells assessed as cell growth at 1 uM incubated for 48 hrs by sulforhodamine B assay relative to control; format: functional; details: BT-549, 48 h, read-out: Activity
[3] = tested on: IGROV-1; assay: Growth inhibition of human IGROV1 cells incubated for 48 hrs by sulforhodamine B assay; format: functional, cell-based; details: IGROV-1, 48 h
[4] = tested on: PC-3; assay: Growth inhibition of human PC3 cells incubated for 48 hrs by sulforhodamine B assay; format: functional, cell-based; details: PC-3, 48 h
[5] = tested on: RXF 393; assay: Growth inhibition of human RXF393 cells assessed as cell growth at 1 uM incubated for 48 hrs by sulforhodamine B assay relative to control; format: functional; details: RXF 393, 48 h, read-out: Activity
[6] = tested on: MCF7; assay: Growth inhibition of human MCF7 cells assessed as cell growth at 1 uM incubated for 48 hrs by sulforhodamine B assay relative to control; format: functional; details: MCF7, 48 h, read-out: Activity
[7] = tested on: HCC 2998; assay: Growth inhibition of human HCC2998 cells assessed as cell growth at 100 uM incubated for 48 hrs by sulforhodamine B assay relative to control; format: functional; details: HCC 2998, 48 h, read-out: Activity
[8] = tested on: M14; assay: Growth inhibition of human M14 cells incubated for 48 hrs by sulforhodamine B assay; format: functional, cell-based; details: M14, 48 h
[9] = tested on: ACHN; assay: Growth inhibition of human ACHN cells assessed as cell growth at 1 uM incubated for 48 hrs by sulforhodamine B assay relative to control; format: functional; details: read-out: Activity
[10] = tested on: SW-620; assay: Growth inhibition of human SW620 cells assessed as cell growth at 0.01 uM incubated for 48 hrs by sulforhodamine B assay relative to control; format: functional; details: SW-620, 48 h, read-out: Activity
[11] = tested on: HL-60(TB); assay: Growth inhibition of human HL-60(TB) cells assessed as cell growth at 0.1 uM incubated for 48 hrs by sulforhodamine B assay relative to control; format: functional; details: HL-60, 48 h, read-out: Activity
[12] = tested on: SR; assay: Growth inhibition of human SR cells incubated for 48 hrs by sulforhodamine B assay; format: functional, cell-based
[13] = tested on: A498; assay: Growth inhibition of human A498 cells assessed as cell growth at 0.1 uM incubated for 48 hrs by sulforhodamine B assay relative to control; format: functional; details: A498, 48 h, read-out: Activity
[14] = tested on: HCT-116; assay: Growth inhibition of human HCT116 cells assessed as cell growth at 1 uM incubated for 48 hrs by sulforhodamine B assay relative to control; format: functional; details: HCT-116, 48 h, read-out: Activity
[15] = tested on: SN12C; assay: Growth inhibition of human SN12C cells assessed as cell growth at 100 uM incubated for 48 hrs by sulforhodamine B assay relative to control; format: functional; details: read-out: Activity
[16] = tested on: 786-0; assay: Growth inhibition of human 786-0 cells incubated for 48 hrs by sulforhodamine B assay; format: functional, cell-based; details: 786-0, 48 h
[17] = tested on: NCI/ADR-RES; assay: Growth inhibition of human NCI/ADR-RES cells incubated for 48 hrs by sulforhodamine B assay; format: functional, cell-based
[18] = tested on: NCI-H460; assay: Growth inhibition of human NCI-H460 cells incubated for 48 hrs by sulforhodamine B assay; format: functional, cell-based; details: NCI-H460, 48 h
[19] = tested on: MDA-MB-468; assay: Growth inhibition of human MDA-MB-468 cells assessed as cell growth at 0.01 uM incubated for 48 hrs by sulforhodamine B assay relative to control; format: functional; details: MDA-MB-468, 48 h, read-out: Activity
[20] = tested on: RXF 393; assay: Growth inhibition of human RXF393 cells assessed as cell growth at 0.1 uM incubated for 48 hrs by sulforhodamine B assay relative to control; format: functional; details: RXF 393, 48 h, read-out: Activity
[21] = tested on: 786-0; assay: Growth inhibition of human 786-0 cells assessed as cell growth at 0.01 uM incubated for 48 hrs by sulforhodamine B assay relative to control; format: functional; details: 786-0, 48 h, read-out: Activity
[22] = tested on: RPMI-8226; assay: Growth inhibition of human RPMI8226 cells assessed as cell growth at 1 uM incubated for 48 hrs by sulforhodamine B assay relative to control; format: functional; details: RPMI-8226, 48 h, read-out: Activity
[23] = tested on: BT-549; assay: Growth inhibition of human BT549 cells assessed as cell growth at 0.01 uM incubated for 48 hrs by sulforhodamine B assay relative to control; format: functional; details: BT-549, 48 h, read-out: Activity
[24] = tested on: A498; assay: Growth inhibition of human A498 cells incubated for 48 hrs by sulforhodamine B assay; format: functional, cell-based; details: A498, 48 h
[25] = tested on: OVCAR-3; assay: Growth inhibition of human OVCAR3 cells incubated for 48 hrs by sulforhodamine B assay; format: functional, cell-based; details: OVCAR-3, 48 h
[26] = tested on: MOLT-4; assay: Growth inhibition of human MOLT4 cells assessed as cell growth at 1 uM incubated for 48 hrs by sulforhodamine B assay relative to control; format: functional; details: MOLT-4, 48 h, read-out: Activity
[27] = tested on: UACC-257; assay: Growth inhibition of human UACC257 cells assessed as cell growth at 0.01 uM incubated for 48 hrs by sulforhodamine B assay relative to control; format: functional; details: UACC-257, 48 h, read-out: Activity
[28] = tested on: SF-539; assay: Growth inhibition of human SF539 cells assessed as cell growth at 1 uM incubated for 48 hrs by sulforhodamine B assay relative to control; format: functional; details: SF-539, 48 h, read-out: Activity
[29] = read-out: LC50 (the source's name)
[30] = read-out: pLC50 (the source's name) (converted)

O=C(Nc1cccc(-n2cc(-c3ccncc3)c(-c3cc(O)cc(Cl)c3)n2)c1)Nc1ccc(Cl)c(C(F)(F)F)c1 was tested, and the growth at 100 µM [1] was -3%, the growth at 1 µM [2] was 90% and the GI50 ([3]; read-out: GI50) was 3.81 µM. It also gave a CC50 [3, 29] of over 100 µM, a TGI ([3]; read-out: TGI) of 12.6 µM and a GI50 ([3]; read-out: pGI50 (converted)) of 3.8 µM. It also gave a CC50 [3, 30] of over 100 µM, a TGI ([3]; read-out: pTGI (converted)) of 12.6 µM and an IC50 [4] of 2.1 µM. The GI50 ([4]; read-out: GI50) was 2.1 µM, the CC50 [4, 29] was 90.3 µM and the TGI ([4]; read-out: TGI) was 84.2 µM. The GI50 ([4]; read-out: pGI50 (converted)) was 2.63 µM, the CC50 [4, 30] was 79.4 µM and the TGI ([4]; read-out: pTGI (converted)) was 6.46 µM. For the same compound, the growth at 1 µM [5] was 58%, the growth at 1 µM [6] was 91% and the growth at 100 µM [7] was -88%. The GI50 ([8]; read-out: GI50) was 1.72 µM, the CC50 [8, 29] was 55.8 µM and the TGI ([8]; read-out: TGI) was 38.8 µM. The GI50 ([8]; read-out: pGI50 (converted)) was 1.7 µM, the CC50 [8, 30] was 8.71 µM and the TGI ([8]; read-out: pTGI (converted)) was 3.89 µM. The growth at 1 µM [9] was 92%, the growth at 0.01 µM [10] was 97% and the growth at 0.1 µM [11] was 89%. The GI50 ([12]; read-out: GI50) was 2.01 µM, the CC50 [12, 29] was over 100 µM and the TGI ([12]; read-out: TGI) was 51 µM. For the same compound, the GI50 ([12]; read-out: pGI50 (converted)) was 2 µM, the CC50 [12, 30] was over 100 µM and the TGI ([12]; read-out: pTGI (converted)) was 5.13 µM. The growth at 0.1 µM [13] was 50%, the growth at 1 µM [14] was 91% and the growth at 100 µM [15] was -32%. For the same compound, the GI50 ([16]; read-out: GI50) was 1.53 µM, the CC50 [16, 29] was 5.2 µM and the TGI ([16]; read-out: TGI) was 44.5 µM. It also gave a GI50 ([16]; read-out: pGI50 (converted)) of 1.82 µM, a CC50 [16, 30] of 89.1 µM and a TGI ([16]; read-out: pTGI (converted)) of 4.47 µM. It also gave a GI50 ([17]; read-out: GI50) of 3.41 µM, a CC50 [17, 29] of over 100 µM and a TGI ([17]; read-out: TGI) of 23.6 µM. It also gave a GI50 ([17]; read-out: pGI50 (converted)) of 3.39 µM, a CC50 [17, 30] of over 100 µM and a TGI ([17]; read-out: pTGI (converted)) of 23.4 µM. It also gave a GI50 ([18]; read-out: GI50) of 2.59 µM, a CC50 [18, 29] of 85.8 µM and a TGI ([18]; read-out: TGI) of 73.7 µM. The GI50 ([18]; read-out: pGI50 (converted)) was 2.57 µM, the CC50 [18, 30] was 87.1 µM and the TGI ([18]; read-out: pTGI (converted)) was 7.41 µM. The growth at 0.01 µM [19] was 93%, the growth at 0.1 µM [20] was 95% and the growth at 0.01 µM [21] was 98%. It also gave a growth at 1 µM [22] of 88%, a growth at 0.01 µM [23] of 102% and a GI50 ([24]; read-out: GI50) of 3.9 µM. The CC50 [24, 29] was 44 µM, the TGI ([24]; read-out: TGI) was 15.5 µM and the GI50 ([24]; read-out: pGI50 (converted)) was 3.89 µM. It also gave a CC50 [24, 30] of 44.7 µM, a TGI ([24]; read-out: pTGI (converted)) of 15.5 µM and an IC50 [25] of 2.34 µM. It also gave a GI50 ([25]; read-out: GI50) of 2.34 µM, a CC50 [25, 29] of over 100 µM and a TGI ([25]; read-out: TGI) of 50 µM. The GI50 ([25]; read-out: pGI50 (converted)) was 2.34 µM, the CC50 [25, 30] was over 100 µM and the TGI ([25]; read-out: pTGI (converted)) was 6.61 µM. The growth at 1 µM [26] was 52%, the growth at 0.01 µM [27] was 90% and the growth at 1 µM [28] was 91%.
